Here are results for 24 compounds from patent US10342819B2, “Oligonucleotide having non-natural nucleotide at 5′-terminal thereof” (Kyowa Hakko Kirin Co., Ltd., priority 2014, dated 2019).

The first experiment addresses T1, AGO2-MID domain (Homo sapiens, UniProt Q9UKV8).
T1 construct: mixed with an equal amount of a 5 μg/mL AGO2-MID domain solution
Put plainly: Biacore competition experiment of nucleotide (monomer) for the AGO2-MID domain (Test Examples 7 and 8). The conditions noted are these: Test Example 7; 2.5 μg/mL AGO2-MID domain solution containing the monomer at 100 μM; read-out: inhibition rate (%) (100 μM AGO2-MID domain solutions). It is filed as binding. The method, then: HBS-EP+ 10× was diluted to 10-fold with pure water, and DTT was added thereto to give a final concentration of 2 mM, followed by filtration through a filter to prepare an HBS-EP+ 2 mM DTT aqueous solution. To this solution, dimethyl sulfoxide (DMSO) was added to give a final concentration of 1%, whereby a running buffer was prepared.
A monomer solution dissolved in DMSO or distilled water was diluted to 200 μM, 40 μM, 8 μM, and 1.6 μM/(2% DMSO, HBS-EP+, 2 mM DTT), and each of the diluted solutions was mixed with an equal amount of a 5 μg/mL AGO2-MID domain solution diluted with the HBS-EP+2 mM DTT solution, whereby 2.5 μg/mL AGO2-MID domain solutions containing the monomer at 100 μM, 20 μM, 4 μM, and 0.8 μM, respectively, were prepared as the HBS-EP+, 2 mM DTT, 1% DMSO solution.
A competition experiment by the siRNA was performed using a chip immobilized dT(16)-Biotin oligo thereon in the same manner as in Test Example 6. The flow rate is set to 30 μL/minute throughout the experiment, and one cycle is performed as follows: binding for 60 seconds, dissociation for 5 seconds, and regeneration 1 M NaCl for 5 seconds.
In order to stabilize the machine, the first 10 cycles are performed by adding only HBS-EP+, and thereafter, the measurement is performed for each monomer in the order of HBS-EP+(BLANK), a 2.5 μg/mL AGO2-MID domain solution (CONTROL), and 2.5 μg/mL AGO2-MID domain solutions (Sample) containing the monomer at 100 μM, 20 μM, 4 μM, and 0.8 μM, respectively, and a 2.5 μg/mL AGO2-MID domain solution (CONTROL). In the analysis, the binding level of the graph obtained by subtracting the graph for blank immobilization from the graph for the immobilized cell is used, and the residual binding ratio (%) is calculated according to ([Sample]−[BLANK])/([CONTROL]−[BLANK])×100, and the inhibition ratio (%) is calculated according to 100−(residual binding ratio).
In Table 36, the inhibition ratios (%) of 8-Br-dA (Compound I-1) and 5-fluoro-2′-deoxyuridine monophosphate (Compound I-4), and for comparison thereof, the inhibition ratios (%) of adenosine monophosphate (AMP) and uridine monophosphate (UMP) are shown.
Regarding `Nc1ncnc2c1ncn2[C@@H]1O[C@H](COP(=O)(O)O)[C@@H](O)[C@H]1O` [AMP, adenosine monophosphate, reference compound], the inhibition at 100 µM stood at 27.1%. The same measure, in the same setting: the value for `Nc1ncnc2c1nc(Br)n2[C@H]1C[C@H](O)[C@@H](COP(=O)(O)O)O1` [compound I-1, 8-bromo-2′-deoxyadenosine monophosphate] was 68.6%.

The same experiment, now with this note: Test Example 8; 2.5 μg/mL AGO2-MID domain solution containing the monomer at 100 μM; read-out: inhibition rate (%) (100 μM AGO2-MID domain solutions).
As for `O=c1cc(I)n([C@@H]2O[C@H](COP(=O)(O)O)[C@@H](O)[C@H]2O)c(=O)[nH]1` [compound I-13, ((2R,3S,4R,5R)-5-(6-Iodo-2,4-dioxo-3,4-dihydropyrimidin-1(2H)-yl)-3,4-dihydroxytetrahydrofuran-2-yl)methyl phosphate], the inhibition at 100 µM stood at 63.4%. Take `COc1cc2c(=O)[nH]c(=O)n([C@@H]3O[C@H](COP(=O)(O)O)[C@@H](O)[C@H]3O)c2cc1OC` [compound I-5, ((2R,3S,4R,5R)-5-(6,7-dimethoxy-2,4-dioxo-3,4-dihydroquinazolin-1(2H)-yl)-3,4-dihydroxytetrahydrofuran-2-yl)methyl phosphate]: the inhibition at 100 µM was 87.4%.

Turning to `Cc1cc(=O)[nH]c(=O)n1[C@@H]1O[C@H](COP(=O)(O)O)[C@@H](O)[C@H]1O` [compound I-34, ((2R,3S,4R,5R)-3,4-Dihydroxy-5-(6-methyl-2,4-dioxo-3,4-dihydropyrimidin-1(2H)-yl)tetrahydrofuran-2-yl)methyl phosphate], the inhibition at 100 µM came to 31.8%.

For `O=c1[nH]c(=O)n([C@@H]2O[C@H](COP(=O)(O)O)[C@@H](O)[C@H]2O)c2ccc([N+](=O)[O-])cc12` [compound I-23, ((2R,3S,4R,5R)-3,4-Dihydroxy-5-(6-nitro-2,4-dioxo-3,4-dihydroquinazolin-1(2H)-yl)tetrahydrofuran-2-yl)methyl phosphate], the inhibition at 100 µM came out at 85.2%. Still for that read-out and setting: the value for `O=c1[nH]c(=O)n([C@@H]2O[C@H](COP(=O)(O)O)[C@@H](O)[C@H]2O)cc1-c1ccccn1` [compound I-14, ((2R,3S,4R,5R)-5-(2,4-Dioxo-5-(pyridin-2-yl)-3,4-dihydropyrimidin-1 (2H)-yl)-3,4-dihydroxytetrahydrofuran-2-yl)methyl phosphate] was 63.3%. On to `O=P(O)(O)OC[C@H]1O[C@@H](n2cnc3c(-c4cccc(OCc5ccccc5)c4)ncnc32)[C@H](O)[C@@H]1O` [compound I-29, ((2R,3S,4R,5R)-5-(6-(3-(Benzyloxy)phenyl)-9H-purin-9-yl)-3,4-dihydroxytetrahydrofuran-2-yl)methyl phosphate], for which the inhibition at 100 µM came to 77.9%.

Regarding `O=c1[nH]c(=O)n([C@@H]2O[C@H](COP(=O)(O)O)[C@@H](O)[C@H]2O)cc1-c1ncco1` [compound I-15, ((2R,3S,4R,5R)-3,4-Dihydroxy-5-(5-(oxazol-2-yl)-2,4-dioxo-3,4-dihydropyrimidin-1(2H)-yl)tetrahydrofuran-2-yl)methyl phosphate], the inhibition at 100 µM was determined as 73%. Take `CNc1cc2c(cc1[N+](=O)[O-])c(=O)[nH]c(=O)n2[C@@H]1O[C@H](COP(=O)(O)O)[C@@H](O)[C@H]1O` [compound I-37, ((2R,3S,4R,5R)-3,4-Dihydroxy-5-(7-(methylamino)-6-nitro-2,4-dioxo-3,4-dihydroquinazolin-1(2H)-yl)tetrahydrofuran-2-yl)methyl phosphate]: the inhibition at 100 µM was determined as 92.3%. For `O=c1[nH]c(=O)n([C@@H]2O[C@H](COP(=O)(O)O)[C@@H](O)[C@H]2O)c2ccsc12` [compound I-9, (2R,3S,4R,5R)-5-(2,4-Dioxo-3,4-dihydrothieno[3,2-d]pyrimidin-1(2H)-yl)-3,4-dihydroxytetrahydrofuran-2-yl)methyl phosphate], the inhibition at 100 µM worked out at 70.9%. On the same count and under the same terms, with `CN(C)c1cc2c(cc1[N+](=O)[O-])c(=O)[nH]c(=O)n2[C@@H]1O[C@H](COP(=O)(O)O)[C@@H](O)[C@H]1O` [compound I-36, ((2R,3S,4R,5R)-5-(7-(Dimethylamino)-6-nitro-2,4-dioxo-3,4-dihydroquinazolin-1(2H)-yl)-3,4-dihydroxytetrahydrofuran-2-yl)methyl phosphate] the figure was 91.6%. Same read-out and setting: the value for `O=c1[nH]c(=O)n([C@@H]2O[C@H](COP(=O)(O)O)[C@@H](O)[C@H]2O)c2cccc(Cl)c12` [compound I-8, ((2R,3S,4R,5R)-5-(5-Chloro-2,4-dioxo-3,4-dihydroquinazolin-1(2H)-yl)-3,4-dihydroxytetrahydrofuran-2-yl)methyl phosphate] was 77.1%. In the case of `O=P(O)(O)OC[C@H]1O[C@@H](n2cnc3c(-c4cccc(N5CCOCC5)c4)ncnc32)[C@H](O)[C@@H]1O` [compound I-28, ((2R,3S,4R,5R)-3,4-Dihydroxy-5-(6-(3-morpholinophenyl)-9H-purin-9-yl)tetrahydrofuran-2-yl)methyl phosphate], the inhibition at 100 µM was determined as 77%. The same measure, in the same setting: with `O=c1[nH]c(=O)n([C@@H]2O[C@H](COP(=O)(O)O)[C@@H](O)[C@H]2O)c2ccc(Cl)cc12` [compound I-6, ((2R,3S,4R,5R)-5-(6-Chloro-2,4-dioxo-3,4-dihydroquinazolin-1(2H)-yl)-3,4-dihydroxytetrahydrofuran-2-yl)methyl phosphate] the figure was 70%. As for `COc1ccc(-c2cn([C@@H]3O[C@H](COP(=O)(O)O)[C@@H](O)[C@H]3O)c(=O)[nH]c2=O)cc1` [compound I-16, ((2R,3S,4R,5R)-3,4-Dihydroxy-5-(5-(4-methoxyphenyl)-2,4-dioxo-3,4-dihydropyrimidin-1(2H)-yl)tetrahydrofuran-2-yl)methyl phosphate], the inhibition at 100 µM is 65.6%. Same read-out and setting: the value for `O=C(O)c1cccc(-c2ncnc3c2ncn3[C@@H]2O[C@H](COP(=O)(O)O)[C@@H](O)[C@H]2O)c1` [compound I-30, ((2R,3S,4R,5R)-5-(6-(3-(carboxy)phenyl)-9H-purin-9-yl)-3,4-dihydroxytetrahydrofuran-2-yl)methyl phosphate] was 73.2%. The same measure, in the same setting: the value for `O=P(O)(O)OC[C@H]1O[C@@H](n2cnc3c(-c4cccc(-c5ccccc5)c4)ncnc32)[C@H](O)[C@@H]1O` [compound I-26, ((2R,3S,4R,5R)-5-(6-(Biphenyl-3-yl)-9H-purin-9-yl)-3,4-dihydroxytetrahydrofuran-2-yl)methyl phosphate] was 82.4%; that for `O=P(O)(O)OC[C@H]1O[C@@H](n2c(Br)nc3c(/C=C/c4ccccc4)ncnc32)[C@H](O)[C@@H]1O` [compound I-18, ((2R,3S,4R,5R)-5-(8-Bromo-6-((E)-styryl)-9H-purin-9-yl)-3,4-dihydroxytetrahydrofuran-2-yl)methyl phosphate] was 97.8%. Same read-out and setting: with `O=P(O)(O)OC[C@H]1O[C@@H](n2cnc3c(/C=C/c4ccccc4)ncnc32)[C@H](O)[C@@H]1O` [compound I-10, ((2R,3S,4R,5R)-3,4-dihydroxy-5-(6-((E)-styryl)-9H-purin-9-yl)tetrahydrofuran-2-yl)methyl phosphate] the figure was 73.5%; with `O=P(O)(O)OC[C@H]1O[C@@H](n2cnc3c(-c4cccc5ccccc45)ncnc32)[C@H](O)[C@@H]1O` [compound I-25, ((2R,3S,4R,5R)-3,4-Dihydroxy-5-(6-(naphthalen-1-yl)-9H-purin-9-yl)tetrahydrofuran-2-yl)methyl phosphate], 33.9%; with `Cc1c(C#N)n([C@@H]2O[C@H](COP(=O)(O)O)[C@@H](O)[C@H]2O)c(=O)[nH]c1=O` [compound I-24, ((2R,3S,4R,5R)-5-(6-cyano-5-methyl-2,4-dioxo-3,4-dihydropyrimidin-1 (2H)-yl)-3,4-dihydroxytetrahydrofuran-2-yl)methyl phosphate], 88.4%. In the case of `O=Cc1cccc(-c2ncnc3c2ncn3[C@@H]2O[C@H](COP(=O)(O)O)[C@@H](O)[C@H]2O)c1` [compound I-22, ((2R,3S,4R,5R)-3,4-Dihydroxy-5-(6-(3-formylphenyl)-9H-purin-9-yl)tetrahydrofuran-2-yl)methyl phosphate], the inhibition at 100 µM stood at 91.6%.

The same experiment, now with this note: conclusion from Test Example 7.
In the case of `O=c1[nH]c(=O)n([C@H]2C[C@H](O)[C@@H](COP(=O)(O)O)O2)cc1F` [5-fluoro-2′-deoxyuridine monophosphate], the “affinity for AGO2 (inhibition ratio) compared with adenosine monophosphate or uridine monophosphate” value is reported as “higher affinity for AGO2”.

For `Nc1ncnc2c1nc(Br)n2[C@H]1C[C@H](O)[C@@H](COP(=O)(O)O)O1` [compound I-1, 8-bromo-2′-deoxyadenosine monophosphate], the “affinity for AGO2 (inhibition ratio) compared with adenosine monophosphate or uridine monophosphate” value is “higher affinity for AGO2”.
